# Reference: patent publication US20080299195A1, “USE OF RANOLAZINE FOR ELEVATED BRAIN-TYPE NATRIURETIC PEPTIDE” (priority 2007, published 2008)
# System: patients with non-ST elevation ACS
# Test: MERLIN-TIMI 36 trial: randomized, double-blind, placebo-controlled trial of ranolazine, stratified by baseline BNP
# Type: in vivo, human
# Conditions: ranolazine vs placebo
# Excerpt: Ranolazine is believed to exert anti-ischemic effects through a reduction in myocardial cellular sodium and calcium overload with a consequent reduction in wall stress. B-type natriuretic peptide (BNP) is released in response to increased wall stress and is a potent indicator of risk in acute coronary syndromes (ACS). This study was a prospective evaluation of the interaction between BNP and the effect of ranolazine as part of a randomized, double-blind, placebo-controlled trial.
# Patients with a non-ST elevation acute coronary syndrome (NSTEACS), refers to patients with chest discomfort or anginal equivalent occurring at rest, lasting ≧10 minutes, and consistent with myocardial ischemia, and the presence of ischemic symptoms (≧5 minutes) at rest within 48 hours of admittance which may include index episode, and having at least one of the following indicators of moderate-high risk: • Elevated cardiac troponin (above local MI limit) or CK-MB (>ULN) • ST-depression (horizontal or down-sloping) >0.1 mV • Diabetes mellitus (requiring insulin or oral therapy) • A Risk Score of >3 wherein one point is assigned for each of the following variables and a total score calculated as the arithmetic sum: • Age >65 years; • Known CAD (prior MI, CABG, PCI or angiographic stenosis ≧50%); • Three or more cardiac risk factors (DM, elevated cholesterol, hypertension, family history); • More than one episode of ischemic discomfort at rest in the prior 24 hours; • Chronic aspirin use in the 7 days preceding onset of symptoms; • ST segment depression ≧0.05 mV; and • Elevated cardiac troponin or CK-MB.
# Plasma BNP were measured (ADVIA® BNP) at baseline (N=4543), 14 days (N=4079), and the Final Visit (N=3328) of the patients with non-ST elevation ACS randomized to ranolazine or placebo in the MERLIN-TIMI 36 trial. During the trial 200 mg of ranolazine (or matching placebo) was administered intravenously over 1 hour, followed by an 80 mg/hr intravenous infusion, which was reduced to 40 mg/hr for patients with an estimated creatinine clearance of less than […] (<0.50 mL/s), and was continued for 12 to 96 hours. On or near the completion (about 1 hour before completion) of the infusion, transition from the IV solution to ranolazine extended release (or matching placebo) occurred and ranolazine extended release (or matching placebo) continued orally at a dose of 1000 mg twice daily until the end of the study. [Morrow, et al., J. Am. Med. Assoc'n. 297 (16), 1775-1783, 2007]. Patients were stratified using BNP >80 pg/mL based upon prior work with this assay. The primary endpoint of the trial was a composite of cardiovascular death, myocardial infarction, or recurrent ischemia (CVD/MI/RI).
smiles,measurement,setting,value
"COc1ccccc1OCC(O)CN1CCN(CC(=O)Nc2c(C)cccc2C)CC1 (racemic) [ranolazine, (±)-N-(2,6-dimethylphenyl)-4-[2-hydroxy-3-(2-methoxyphenoxy)propyl]-1-piperazine-acetamide]",HR for endpoint component of worsening angina,"patients with BNP>80 pg/mL, CI 0.35-0.84, p=0.005",0.55
same,"HR for primary endpoint (composite of cardiovascular death, myocardial infarction, or recurrent ischemia, CVD/MI/RI)","patients with BNP>80 pg/mL, IV 200 mg over 1 h, then 80 mg/hr for 12 to 96 hours, then extended release 1000 mg twice daily orally, 95% CI 0.66-0.94, p=0.009",0.79
same,effect on primary endpoint (CVD/MI/RI),"patients with a negative BNP result, p-interaction=0.052",lack of detectable effect
same,HR for endpoint component of worsening angina,"95% CI 0.63-1.28, p=0.55, p-interaction 0.079",0.90
